Measured values from PubChem BioAssay AID1259407 (Chemical Carcinogenesis Research Information System (CCRIS), 2018).
The source made the active and inactive calls. No rule for the calls is given here.

Tested on: CCRIS mutagenicity, Ames/micronucleus/aberration tests
Experiment: CCRIS mutagenicity studies
[1] = Test System: AMES SALMONELLA TYPHIMURIUM, Strain/Indicator: TA98, Metabolic Activation: HAMSTER, LIVER, S-9, AROCLOR 1254, Method: PREINCUBATION
[2] = Test System: AMES SALMONELLA TYPHIMURIUM, Strain/Indicator: TA98, Metabolic Activation: NONE, Method: PREINCUBATION
[3] = Test System: AMES SALMONELLA TYPHIMURIUM, Strain/Indicator: TA98, Metabolic Activation: RAT, LIVER, S-9, AROCLOR 1254, Method: PREINCUBATION
[4] = Test System: AMES SALMONELLA TYPHIMURIUM, Strain/Indicator: TA100, Metabolic Activation: HAMSTER, LIVER, S-9, AROCLOR 1254, Method: PREINCUBATION
[5] = Test System: AMES SALMONELLA TYPHIMURIUM, Strain/Indicator: TA100, Metabolic Activation: NONE, Method: PREINCUBATION
[6] = Test System: AMES SALMONELLA TYPHIMURIUM, Strain/Indicator: TA100, Metabolic Activation: RAT, LIVER, S-9, AROCLOR 1254, Method: PREINCUBATION
[7] = Test System: AMES SALMONELLA TYPHIMURIUM, Strain/Indicator: TA1535, Metabolic Activation: HAMSTER, LIVER, S-9, AROCLOR 1254, Method: PREINCUBATION
[8] = Test System: AMES SALMONELLA TYPHIMURIUM, Strain/Indicator: TA1535, Metabolic Activation: NONE, Method: PREINCUBATION
[9] = Test System: AMES SALMONELLA TYPHIMURIUM, Strain/Indicator: TA1535, Metabolic Activation: RAT, LIVER, S-9, AROCLOR 1254, Method: PREINCUBATION
[10] = Test System: AMES SALMONELLA TYPHIMURIUM, Strain/Indicator: TA1537, Metabolic Activation: HAMSTER, LIVER, S-9, AROCLOR 1254, Method: PREINCUBATION
[11] = Test System: AMES SALMONELLA TYPHIMURIUM, Strain/Indicator: TA1537, Metabolic Activation: NONE, Method: PREINCUBATION
[12] = Test System: AMES SALMONELLA TYPHIMURIUM, Strain/Indicator: TA1537, Metabolic Activation: RAT, LIVER, S-9, AROCLOR 1254, Method: PREINCUBATION
[13] = Test System: AMES SALMONELLA TYPHIMURIUM, Strain/Indicator: TA100, Metabolic Activation: NONE, Method: STANDARD PLATE

Q: Which results are given for `OCC1=CCN2CC[C@@H](O)[C@@H]12`?
A: mutagenic call (Test System: AMES SALMONELLA TYPHIMURIUM, Strain/Indicator: TA100, Metabolic Activation: HAMSTER, LIVER, S-9, PCB, Method: PREINCUBATION): inactive; negative; mutagenic call (Test System: AMES SALMONELLA TYPHIMURIUM, Strain/Indicator: TA100, Metabolic Activation: RAT, LIVER, S-9, PCB, Method: PREINCUBATION): inactive; negative; mutagenic call (Test System: UDS HAMSTER HEPATOCYTES, Strain/Indicator: THY INCORP, Metabolic Activation: NONE, Method: AUTORADIOGRAPHY): inactive; negative; mutagenic call (Test System: UDS MOUSE HEPATOCYTES, Strain/Indicator: THY INCORP, Metabolic Activation: NONE, Method: AUTORADIOGRAPHY): inactive; negative; mutagenic call (Test System: UDS RAT HEPATOCYTES, Strain/Indicator: THY INCORP, Metabolic Activation: NONE, Method: AUTORADIOGRAPHY): inactive; negative

Q: Which mutagenic call [1] does the source give for `CCCCOC(=O)c1ccc(N)cc1` here?
A: inactive; negative

Q: What about the mutagenic call [2] of the same compound?
A: inactive; negative

Q: What about the mutagenic call [3] of the same compound?
A: inactive; negative

Q: And the mutagenic call [4]?
A: inactive; negative

Q: What about the mutagenic call [5] of the same compound?
A: inactive; negative

Q: What about the mutagenic call [6] of the same compound?
A: inactive; negative

Q: What about the mutagenic call [7] of the same compound?
A: inactive; negative

Q: What about the mutagenic call [8] of the same compound?
A: inactive; negative

Q: What about the mutagenic call [9] of the same compound?
A: inactive; negative

Q: What about the mutagenic call [10] of the same compound?
A: inactive; negative

Q: And the mutagenic call [11]?
A: inactive; negative

Q: And the mutagenic call [12]?
A: inactive; negative

Q: `Cc1cccc2ccc3c4ccccc4ccc3c12` was tested. Which mutagenic call (Test System: AMES SALMONELLA TYPHIMURIUM, Strain/Indicator: TA100, Metabolic Activation: RAT, LIVER, MICROSOMES, 4-METHYLCHRYSENE, Method: STANDARD PLATE) did it give?
A: inactive; negative

Q: What about the mutagenic call (Test System: AMES SALMONELLA TYPHIMURIUM, Strain/Indicator: TA100, Metabolic Activation: RAT, LIVER, MICROSOMES, AROCLOR 1254, Method: STANDARD PLATE) of the same compound?
A: active; positive

Q: What about the mutagenic call (Test System: AMES SALMONELLA TYPHIMURIUM, Strain/Indicator: TA100, Metabolic Activation: RAT, LIVER, MICROSOMES, Method: STANDARD PLATE) of the same compound?
A: inactive; negative

Q: How did the mutagenic call [13] turn out when `COc1ccc(CNC(=O)C(C)Br)cc1OC` (stereo unspecified) was run?
A: active; positive

Q: With `Cc1ccccc1C` as the compound, how does the mutagenic call [1] read?
A: inactive; negative

Q: And the mutagenic call [2]?
A: inactive; negative

Q: And the mutagenic call (Test System: AMES SALMONELLA TYPHIMURIUM, Strain/Indicator: TA98, Metabolic Activation: NONE, Method: STANDARD PLATE)?
A: inactive; negative

Q: And the mutagenic call [3]?
A: inactive; negative

Q: What about the mutagenic call (Test System: AMES SALMONELLA TYPHIMURIUM, Strain/Indicator: TA98, Metabolic Activation: RAT, LIVER, S-9, AROCLOR, Method: STANDARD PLATE) of the same compound?
A: inactive; negative

Q: What about the mutagenic call [4] of the same compound?
A: inactive; negative

Q: What about the mutagenic call [5] of the same compound?
A: inactive; negative

Q: What about the mutagenic call [13] of the same compound?
A: inactive; negative

Q: What about the mutagenic call [6] of the same compound?
A: inactive; negative

Q: And the mutagenic call (Test System: AMES SALMONELLA TYPHIMURIUM, Strain/Indicator: TA100, Metabolic Activation: RAT, LIVER, S-9, AROCLOR, Method: STANDARD PLATE)?
A: inactive; negative

Q: What about the mutagenic call [7] of the same compound?
A: inactive; negative

Q: What about the mutagenic call [8] of the same compound?
A: inactive; negative

Q: What about the mutagenic call [9] of the same compound?
A: inactive; negative

Q: And the mutagenic call [10]?
A: inactive; negative

Q: What about the mutagenic call [11] of the same compound?
A: inactive; negative

Q: What about the mutagenic call [12] of the same compound?
A: inactive; negative

Q: And the mutagenic call (Test System: AMES SALMONELLA TYPHIMURIUM, Strain/Indicator: UTH8413, Metabolic Activation: NONE, Method: STANDARD PLATE)?
A: inactive; negative

Q: What about the mutagenic call (Test System: AMES SALMONELLA TYPHIMURIUM, Strain/Indicator: UTH8413, Metabolic Activation: RAT, LIVER, S-9, AROCLOR, Method: STANDARD PLATE) of the same compound?
A: inactive; negative

Q: What about the mutagenic call (Test System: AMES SALMONELLA TYPHIMURIUM, Strain/Indicator: UTH8414, Metabolic Activation: NONE, Method: STANDARD PLATE) of the same compound?
A: inactive; negative

Q: What about the mutagenic call (Test System: AMES SALMONELLA TYPHIMURIUM, Strain/Indicator: UTH8414, Metabolic Activation: RAT, LIVER, S-9, AROCLOR, Method: STANDARD PLATE) of the same compound?
A: inactive; negative

Q: How did the mutagenic call (End Point: IN VIVO CHROMOSOMAL ABERRATIONS, Test System: BONE MARROW, Species: RAT, Strain/Sex: WISTAR/FEMALE, Route: IP) turn out when `CC1(C)[C@H](/C=C(\Cl)C(F)(F)F)[C@@H]1C(=O)O[C@@H](C#N)c1cccc(Oc2ccccc2)c1` was run?
A: active; positive (structural changes)

Q: What about the mutagenic call (End Point: IN VIVO MICRONUCLEUS, Test System: BONE MARROW POLYCHROMATIC ERYTHROCYTES, Species: RAT, Strain/Sex: WISTAR/FEMALE, Route: ORAL (GAVAGE)) of the same compound?
A: active; positive

Q: What about the mutagenic call (End Point: IN VIVO MICRONUCLEUS, Test System: BONE MARROW, Species: RAT, Strain/Sex: WISTAR/FEMALE, Route: IP) of the same compound?
A: active; positive

Q: What about the mutagenic call (End Point: IN VIVO MICRONUCLEUS, Test System: POLYCHROMATIC ERYTHROCYTES FROM COLONIC CRYPT EPITHELIAL CELLS, Species: RAT, Strain/Sex: WISTAR/FEMALE, Route: ORAL (GAVAGE)) of the same compound?
A: active; positive

Q: Which results are given for `COC(=O)c1cc2c([nH]c3ccc([N+](=O)[O-])cc32)c(-c2ccccc2)n1`?
A: mutagenic call (Test System: AMES SALMONELLA TYPHIMURIUM, Strain/Indicator: TA98(NR), Metabolic Activation: NONE, Method: STANDARD PLATE): inactive; negative; mutagenic call (Test System: AMES SALMONELLA TYPHIMURIUM, Strain/Indicator: TA98(NR), Metabolic Activation: RAT, LIVER, S-9, AROCLOR 1254, Method: STANDARD PLATE): active; positive

Q: For `O[C@@H]1[C@@H]2O[C@@H]2c2c(ccc3cc4ccc5ccccc5c4nc23)[C@H]1O`, which mutagenic call [2] is on record?
A: active; positive

Q: And the mutagenic call [5]?
A: active; positive

Q: And the mutagenic call (Test System: CHINESE HAMSTER V-79, Strain/Indicator: V-79/8-AZAGUANINE, Metabolic Activation: NONE, Method: STANDARD PLATE)?
A: active; positive

Q: `COc1ccc2c(c1)-c1nccc3cc(OC)c(O)c(c13)C2=O` was tested. Which mutagenic call (Test System: AMES SALMONELLA TYPHIMURIUM, Strain/Indicator: TA98, Metabolic Activation: RAT, LIVER, S-9, PHENOBARBITAL AND BETA-NAPHTHOFLAVONE, Method: PREINCUBATION) did it give?
A: active; positive
